Where two headings read alike, the source gives them in different places. *1 amine or outer side, *2 acyl side, *3 side chain or, on linkers, in order; H or OH if unused. Where a SMILES comes first, the peptide text is derived from it. Side-chain parts run from the residue outwards. [ ]: non-standard residue; d: D form. The star is where a group is joined. αMePhe(2-F) = C[C@](N)(Cc1ccccc1F)C(=O)O; γGlu = O=C(O)[C@H](CCC(=O)[*:2])N[*:1]; αMeY = C[C@](N)(Cc1ccc(O)cc1)C(=O)O; αMeF = C[C@](N)(Cc1ccccc1)C(=O)O; 4Pal = N[C@@H](Cc1ccncc1)C(=O)O; αMeL = CC(C)C[C@](C)(N)C(=O)O; Lauroyl = CCCCCCCCCCCC(=O)*; Orn = NCCC[C@H](N)C(=O)O; AEEA = NCCOCCOCC(=O)O; Aib = CC(C)(N)C(=O)O
What was measured:
Assay type in all cases: cell-based
hGIPR = molecular target: T1, hGIPR (Homo sapiens, UniProt P48546); experiment: Functional cAMP formation (HTRF) in HEK-293 clonal cells expressing hGIPR, 0.1% bovine casein, without or with 1.0% human serum albumin; settings: for EC50: geometric mean
T1 construct: expressed in transfected cells
T1 sequence (P48546 22-466): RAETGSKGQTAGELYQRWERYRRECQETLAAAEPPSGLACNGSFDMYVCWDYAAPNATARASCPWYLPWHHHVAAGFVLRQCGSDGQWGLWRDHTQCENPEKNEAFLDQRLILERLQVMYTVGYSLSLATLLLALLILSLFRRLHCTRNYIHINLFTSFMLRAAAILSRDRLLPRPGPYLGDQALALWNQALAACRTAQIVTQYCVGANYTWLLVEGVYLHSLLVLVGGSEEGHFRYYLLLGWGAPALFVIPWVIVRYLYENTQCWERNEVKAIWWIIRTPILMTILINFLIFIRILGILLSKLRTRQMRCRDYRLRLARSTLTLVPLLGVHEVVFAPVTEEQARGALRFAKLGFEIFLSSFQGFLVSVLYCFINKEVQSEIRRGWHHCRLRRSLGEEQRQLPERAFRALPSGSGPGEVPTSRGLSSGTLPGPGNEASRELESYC
Outline: (§1)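 Cells were stimulated with peptide for 30 min at 37° C, then intracellular cAMP was measured by competitive HTRF (665/620 nm ratio) and converted to nM using a cAMP standard curve. Relative EC50 and Emax came from four-parameter logistic fits of percent maximal response against peptide concentration.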

hGCGR = molecular target: T2, hGCGR (Homo sapiens, UniProt P47871); experiment: Functional cAMP formation (HTRF) in HEK-293 clonal cells expressing hGCGR, 0.1% bovine casein, without or with 1.0% human serum albumin
T2 construct: expressed in transfected cells
T2 sequence (P47871 26-477): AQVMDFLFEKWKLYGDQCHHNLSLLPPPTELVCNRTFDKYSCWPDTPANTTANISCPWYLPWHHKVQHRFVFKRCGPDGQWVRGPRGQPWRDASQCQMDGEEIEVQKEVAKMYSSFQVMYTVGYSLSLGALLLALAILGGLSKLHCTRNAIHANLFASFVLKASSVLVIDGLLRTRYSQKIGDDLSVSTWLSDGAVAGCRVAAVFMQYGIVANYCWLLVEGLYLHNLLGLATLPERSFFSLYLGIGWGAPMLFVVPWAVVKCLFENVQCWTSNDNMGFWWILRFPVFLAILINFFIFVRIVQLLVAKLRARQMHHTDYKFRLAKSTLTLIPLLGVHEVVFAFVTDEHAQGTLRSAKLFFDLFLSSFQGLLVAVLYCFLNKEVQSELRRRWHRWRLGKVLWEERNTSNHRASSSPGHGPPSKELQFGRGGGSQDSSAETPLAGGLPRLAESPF
Outline: as §1

hGLP-1R = hGLP-1R (Homo sapiens, UniProt P43220); experiment: Functional cAMP formation (HTRF) in HEK-293 clonal cells expressing hGLP-1R, 0.1% bovine casein, without or with 1.0% human serum albumin; set-up: expressed in transfected cells; settings: 37° C.; for EC50: geometric mean; for Emax: HEK293, cAMP, percent of maximal response to GLP-1(7-36)NH2, read-out: hGLP-1R Emax, % ± SEM
Chain of hGLP-1R (P43220 24-463): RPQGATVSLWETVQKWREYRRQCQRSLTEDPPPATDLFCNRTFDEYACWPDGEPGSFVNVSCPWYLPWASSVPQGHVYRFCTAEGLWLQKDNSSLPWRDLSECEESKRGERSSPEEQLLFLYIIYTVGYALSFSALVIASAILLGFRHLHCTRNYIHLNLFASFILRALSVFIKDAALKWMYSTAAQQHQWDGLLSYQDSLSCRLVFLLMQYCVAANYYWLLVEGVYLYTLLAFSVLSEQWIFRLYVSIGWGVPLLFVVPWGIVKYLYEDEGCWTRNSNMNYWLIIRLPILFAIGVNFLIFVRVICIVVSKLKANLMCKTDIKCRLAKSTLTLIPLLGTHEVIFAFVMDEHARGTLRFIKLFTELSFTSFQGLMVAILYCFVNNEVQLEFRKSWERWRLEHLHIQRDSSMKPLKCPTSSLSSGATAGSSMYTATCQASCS
Outline: as §1

[1] = 0.1% bovine casein and 1.0% human serum albumin, 37° C., read-out: hGIPR EC50, nM (SEM, n)
[2] = HEK293, 0.1% bovine casein and 1.0% human serum albumin, 37° C., percent of maximal response to GIP(1-42)NH2, read-out: hGIPR Emax, % ± SEM
[3] = HEK293, percent of maximal response to GIP(1-42)NH2, 37° C., 0.1% bovine casein, arithmetic mean, read-out: hGIPR Emax, % ± SEM
[4] = cAMP, incubated at 37° C., 0.1% bovine casein (no human serum albumin), read-out: hGIPR EC50, nM (SEM, n)
[5] = 0.1% bovine casein and 1.0% human serum albumin, 37° C., geometric mean, read-out: hGCGR EC50, nM (SEM, n)
[6] = cAMP, incubated at 37° C., 0.1% bovine casein (no human serum albumin), geometric mean, read-out: hGCGR EC50, nM (SEM, n)
[7] = 0.1% bovine casein and 1.0% human serum albumin, read-out: hGLP-1R EC50, nM (SEM, n)

| SMILES | EC50 (hGIPR; [1]) | Emax (hGIPR; [2]) | Emax (hGIPR; [3]) | EC50 (hGIPR; [4]) | EC50 (hGCGR; [5]) | EC50 (hGCGR; [6]) | EC50 (hGLP-1R; [7]) | also measured |
| --- | --- | --- | --- | --- | --- | --- | --- | --- |
| CC[C@H](C)[C@H](NC(=O)[C@H](CC(C)C)NC(=O)[C@](C)(Cc1ccc(O)cc1)NC(=O)[C@@H](CCC(=O)O)NC(=O)[C@@H](NC(=O)[C@H](Cc1ccccc1)NC(=O)[C@H](CCC(=O)O)NC(=O)C(C)(C)NC(=O)[C@H](CCC(N)=O)NC(=O)[C@H](C)NC(=O)[C@H](CCCCNC(=O)COCCOCCNC(=O)COCCOCCNC(=O)CCCCCCCCCCCCC(=O)O)NC(=O)[C@H](CCCN)NC(=O)[C@H](CC(=O)O)NC(=O)[C@H](CC(C)C)NC(=O)[C@](C)(CC(C)C)NC(=O)[C@@H](NC(=O)[C@H](CO)NC(=O)[C@H](Cc1ccncc1)NC(=O)[C@H](CC(=O)O)NC(=O)[C@H](CO)NC(=O)[C@@H](NC(=O)[C@](C)(Cc1ccccc1F)NC(=O)[C@@H](NC(=O)CNC(=O)[C@H](CCC(=O)O)NC(=O)C(C)(C)NC(=O)[C@@H](N)Cc1ccc(O)cc1)[C@@H](C)O)[C@@H](C)O)[C@@H](C)CC)[C@@H](C)CC)C(=O)N[C@@H](CCC(=O)O)C(=O)NCC(=O)NCC(=O)N[C@@H](CCCCNC(=O)COCCOCCNC(=O)COCCOCCNC(=O)CCCCCCCCCCCCC(=O)O)C(=O)N[C@@H](CO)C(=O)N[C@@H](CO)C(=O)NCC(=O)N[C@@H](C)C(=O)N1CCC[C@H]1C(=O)N1CCC[C@H]1C(=O)N1CCC[C@H]1C(=O)N[C@@H](CO)C(N)=O [Example 9] | 0.211 nM | 91.6 ± 4.63% | 93.6 ± 2.36% | 0.0102 nM | > 9950 nM | > 9950 nM | 8.82 nM | – |
| CC[C@H](C)[C@H](NC(=O)[C@H](CC(C)C)NC(=O)[C@](C)(Cc1ccc(O)cc1)NC(=O)[C@@H](CCC(=O)O)NC(=O)[C@@H](NC(=O)[C@H](Cc1ccccc1)NC(=O)[C@H](CCC(=O)O)NC(=O)C(C)(C)NC(=O)[C@H](CCC(N)=O)NC(=O)[C@H](C)NC(=O)[C@H](CCCCNC(=O)COCCOCCNC(=O)COCCOCCNC(=O)CCCCCCCCCOc1ccc(C(=O)O)cc1)NC(=O)[C@H](CCCN)NC(=O)[C@H](CC(=O)O)NC(=O)[C@H](CC(C)C)NC(=O)[C@](C)(CC(C)C)NC(=O)[C@@H](NC(=O)[C@H](CO)NC(=O)[C@H](Cc1ccncc1)NC(=O)[C@H](CC(=O)O)NC(=O)[C@H](CO)NC(=O)[C@@H](NC(=O)[C@](C)(Cc1ccccc1F)NC(=O)[C@@H](NC(=O)CNC(=O)[C@H](CCC(=O)O)NC(=O)C(C)(C)NC(=O)[C@@H](N)Cc1ccc(O)cc1)[C@@H](C)O)[C@@H](C)O)[C@@H](C)CC)[C@@H](C)CC)C(=O)N[C@@H](CCC(=O)O)C(=O)NCC(=O)NCC(=O)N[C@@H](CCCCNC(=O)COCCOCCNC(=O)COCCOCCNC(=O)CCCCCCCCCOc1ccc(C(=O)O)cc1)C(=O)N[C@@H](CO)C(=O)N[C@@H](CO)C(=O)NCC(=O)N[C@@H](C)C(=O)N1CCC[C@H]1C(=O)N1CCC[C@H]1C(=O)N1CCC[C@H]1C(=O)N[C@@H](CO)C(N)=O [Example 10] | – | – | – | – | – | – | – | Emax (hGIPR; HEK293, read-out: hGIPR Emax, % ± SEM, 0.1% bovine casein and 1.0% human serum albumin, 37° C., percent of maximal response to GIP(1-42)NH2): 84.9 ± 1.84%; Emax (hGIPR; HEK293, read-out: hGIPR Emax, % ± SEM, percent of maximal response to GIP(1-42)NH2, 37° C., 0.1% bovine casein, arithmetic mean): 97.9 ± 1.99%; EC50 (hGIPR; hGIPR EC50, nM (SEM, n), 0.1% bovine casein and 1.0% human serum albumin, 37° C.): 0.121 nM; EC50 (hGIPR; hGIPR EC50, nM (SEM, n), cAMP, incubated at 37° C., 0.1% bovine casein (no human serum albumin)): 0.0106 nM; EC50 (hGCGR; hGCGR EC50, nM (SEM, n), 0.1% bovine casein and 1.0% human serum albumin, 37° C., geometric mean): > 9950 nM; EC50 (hGCGR; hGCGR EC50, nM (SEM, n), cAMP, incubated at 37° C., 0.1% bovine casein (no human serum albumin), geometric mean): > 9950 nM; EC50 (hGLP-1R; hGLP-1R EC50, nM (SEM, n), 0.1% bovine casein and 1.0% human serum albumin): 4.38 nM |
| CC[C@H](C)[C@H](NC(=O)[C@H](CC(C)C)NC(=O)[C@](C)(Cc1ccc(O)cc1)NC(=O)[C@@H](CCC(=O)O)NC(=O)[C@@H](NC(=O)[C@H](Cc1ccccc1)NC(=O)[C@H](CCC(=O)O)NC(=O)C(C)(C)NC(=O)[C@H](CCC(N)=O)NC(=O)[C@H](C)NC(=O)[C@H](CCCCNC(=O)COCCOCCNC(=O)CC[C@H](NC(=O)CCCCCCCCCCCCC(=O)O)C(=O)O)NC(=O)[C@H](CCCN)NC(=O)[C@H](CC(=O)O)NC(=O)[C@H](CC(C)C)NC(=O)[C@](C)(CC(C)C)NC(=O)[C@@H](NC(=O)[C@H](CO)NC(=O)[C@H](Cc1ccncc1)NC(=O)[C@H](CC(=O)O)NC(=O)[C@H](CO)NC(=O)[C@@H](NC(=O)[C@](C)(Cc1ccccc1F)NC(=O)[C@@H](NC(=O)CNC(=O)[C@H](CCC(=O)O)NC(=O)C(C)(C)NC(=O)[C@@H](N)Cc1ccc(O)cc1)[C@@H](C)O)[C@@H](C)O)[C@@H](C)CC)[C@@H](C)CC)C(=O)N[C@@H](CCC(=O)O)C(=O)NCC(=O)NCC(=O)N[C@@H](CCCCNC(=O)COCCOCCNC(=O)CC[C@H](NC(=O)CCCCCCCCCCCCC(=O)O)C(=O)O)C(=O)N[C@@H](CO)C(=O)N[C@@H](CO)C(=O)NCC(=O)N[C@@H](C)C(=O)N1CCC[C@H]1C(=O)N1CCC[C@H]1C(=O)N1CCC[C@H]1C(=O)N[C@@H](CO)C(N)=O [Example 11] | 1.22 nM | 90 ± 2.71% | 97.7 ± 2.82% | 0.0135 nM | > 9950 nM | > 9950 nM | 34.5 nM | – |
| CCCCCCCCCCCC(=O)N[C@@H](CCC(=O)NCCOCCOCC(=O)NCCOCCOCC(=O)NCCOCCOCC(=O)NCCCC[C@H](NC(=O)[C@H](CO)NC(=O)[C@@H]1CCCN1C(=O)[C@@H]1CCCN1C(=O)[C@@H]1CCCN1C(=O)[C@H](C)NC(=O)CNC(=O)[C@H](CO)NC(=O)[C@H](CO)NC(=O)[C@@H]1CCCN1C(=O)CNC(=O)CNC(=O)[C@H](CCC(=O)O)NC(=O)[C@@H](NC(=O)[C@H](CC(C)C)NC(=O)[C@](C)(Cc1ccc(O)cc1)NC(=O)[C@@H](CCC(=O)O)NC(=O)[C@@H](NC(=O)[C@](C)(Cc1ccccc1)NC(=O)[C@H](CCC(=O)O)NC(=O)C(C)(C)NC(=O)[C@H](CCC(N)=O)NC(=O)[C@H](C)NC(=O)[C@H](CCCCNC(=O)COCCOCCNC(=O)COCCOCCNC(=O)COCCOCCNC(=O)CC[C@H](NC(=O)CCCCCCCCCCC)C(=O)O)NC(=O)[C@H](CCCN)NC(=O)[C@H](CC(=O)O)NC(=O)[C@H](CC(C)C)NC(=O)[C@](C)(CC(C)C)NC(=O)[C@@H](NC(=O)C(C)(C)NC(=O)[C@H](Cc1ccncc1)NC(=O)[C@H](CC(=O)O)NC(=O)[C@H](CO)NC(=O)[C@@H](NC(=O)[C@](C)(Cc1ccccc1F)NC(=O)[C@@H](NC(=O)CNC(=O)[C@H](CCC(=O)O)NC(=O)C(C)(C)NC(=O)[C@@H](N)Cc1ccc(O)cc1)[C@@H](C)O)[C@@H](C)O)[C@@H](C)CC)[C@@H](C)CC)[C@@H](C)CC)C(N)=O)C(=O)O [Example 439] (H-Y[Aib]EGT[αMePhe(2-F)]TSD[4Pal][Aib]I[αMeL]LD[Orn]K([AEEA-AEEA-AEEA-γGlu-Lauroyl])AQ[Aib]E[αMeF]I[dE][αMeY]LIEGGPSSGAPPPSK([AEEA-AEEA-AEEA-γGlu-Lauroyl])-NH2) | – | – | – | – | – | – | – | EC50 (hGCGR; cAMP, 37° C., 0.1% bovine casein (no human serum albumin), geometric mean, read-out: hGCGR EC50, nM (SEM, n)): > 9950 nM; EC50 (hGCGR; cAMP, 37° C., 0.1% bovine casein and 1.0% human serum albumin, geometric mean (SEM, n), read-out: hGCGR EC50, nM (SEM, n)): > 9950 nM; Emax (hGLP-1R; 0.1% bovine casein and 1.0% human serum albumin): 97%; Emax (hGLP-1R; 0.1% bovine casein, arithmetic mean): 95.7%; EC50 (hGLP-1R; cAMP, 0.1% bovine casein (no human serum albumin), read-out: hGLP-1R EC50, nM (SEM, n)): 0.11 nM |
